“Also recorded” adds a separate entry of the source. Read-outs that look alike come from different tables or passages of the source. Peptide text beside a SMILES is read from it.
Tests used:
[1] = target: CHR-peptide C34 (Human immunodeficiency virus type 1 group M subtype B, UniProt P04578); format: binding, HIV-1; details: CD spectroscopy
Experimental: (§1) All the N-peptides were diluted in ddH2O (pH 7.0) and all the C-peptides or the mixture of the N- and C-peptides were diluted in 50 mM sodium phosphate and 150 mM NaCl (PBS, pH 7.2) to a final concentration of 10 μM. The individual peptides and their mixtures were incubated in a 37° C. water bath for 0.5 h before testing. […] The α-helicity was calculated from the CD signal by dividing the mean residue ellipticity at 222 nm by the value expected for 100% helix formation (i.e., 33,000° cm^2 dmol^−1) according to previous studies. Thermal denaturation of the samples was monitored at 222 nm by applying a temperature gradient from 20° C. to 98° C. with a 2-degree interval, an equilibration time of 1.5 min, and an averaging time of 60 s. The midpoint of the thermal unfolding transition (Tm) values was calculated using Jasco software utilities as described previously.

[2] = system: HIV-1IIIB (subtype B, X4)
Experimental: (§2) In brief, 1×10^4 MT-2 cells were infected with HIV-1IIIB in 200 μl RPMI 1640 medium containing 10% FBS in the presence or absence of testing compounds at graded concentrations overnight. Then the culture supernatants were removed and fresh media containing no testing compounds were added. On the fourth day post-infection, 100 μl of culture supernatants were collected from each well, mixed with equal volumes of 5% Triton X-100 and assayed for p24 antigen, which was quantitated by ELISA. Briefly, wells of polystyrene plates (Immulon 1B, Dynex Technology, Chantilly, Va.) were coated with HIV immunoglobulin (HIVIG), which was prepared from plasma of HIV-seropositive donors with high neutralizing titers against HIV-1IIIB, in 0.085 M carbonate-bicarbonate buffer (pH 9.6) at 4° C. overnight, followed by washes with washing buffer (0.01M PBS containing 0.05% Tween-20) and blocking with PBS containing 1% dry fat-free milk (Bio-Rad Inc., Hercules, Calif.). Virus lysates were added to the wells and incubated at 37° C. for 1 h. […] Reactions were terminated by addition of 1N H2SO4. Absorbance at 450 nm was recorded in an ELISA reader (Ultra 386, TECAN, Research Triangle Park, NC). Recombinant protein p24 purchased from US Biological (Swampscott, Mass.) was included for establishing standard dose response curves. […] The percentage of inhibition of p24 production was calculated as previously described.

[3] = system: HIV-1 93IN101 (subtype C, R5); format: cell-based
Experimental: For inhibition of infection by the primary HIV-1 isolate 93IN101 (subtype C, R5), the peripheral blood mononuclear cells (PBMCs) were isolated from the blood of healthy donors using a standard density gradient (Histopaque-1077, Sigma) centrifugation. After incubation at 37° C. for 2 h, the nonadherent cells were collected and resuspended at 5×10^5/ml in RPMI medium 1640 containing 10% FBS, 5 μg of phytohemagglutinin (PHA)/ml, and 100 U of interleukin-2/ml, followed by incubation at 37° C. for 3 days. The PHA-stimulated cells were infected with the primary HIV-1 isolate at a multiplicity of infection (MOI) of 0.01 in the absence or presence of N-Fd peptides at graded concentrations. The supernatants were collected on the 7th day post-infection and tested for p24 antigen by ELISA.

[4] = system: HIV-1 Bal (subtype B, R5); format: cell-based
Experimental: The cells were harvested and lysed on the fourth day post-infection with 50p1 of lysing reagent. The luciferase activity was analyzed using a luciferase kit (Promega, Madison, Wis.) and a luminometer (Ultra 386) according to the manufacturer's instructions. The percent inhibition of luciferase activity was calculated.

[5] = SDS-PAGE analysis of trimer stability; format: physicochemical; details: 2% SDS sample buffer, room temperature or boiled 5 min
Experimental: Purified N36Fd and N28Fd were analyzed by SDS-PAGE. […] The sample was boiled for 5 min or kept at room temperature (RT) before loading onto a 10-20% Tricine-Glycine gel (Invitrogen). The electrophoresis was conducted in SDS-PAGE running buffer with 125V constant voltage at 4° C. The gels were stained with SimplyBlue SafeStain (Invitrogen).

[6] = system: HIV-1IIIB; experiment: Proteinase K digestion, remaining antiviral activity against HIV-1IIIB infection; details: 1 μU/ml Proteinase K in PBS, 37° C., 3 hrs
Experimental: as §2

[7] = system: HIV-1NL4-3(36G) N42T/N43K; details: T20-resistant
Experimental: (§3) In brief, 1×10^4 MT-2 cells were infected with HIV-1IIIB in 200 μl RPMI 1640 medium containing 10% FBS in the presence or absence of testing compounds at graded concentrations overnight. Then the culture supernatants were removed and fresh media containing no testing compounds were added. On the fourth day post-infection, 100 μl of culture supernatants were collected from each well, mixed with equal volumes of 5% Triton X-100 and assayed for p24 antigen, which was quantitated by ELISA. Briefly, wells of polystyrene plates (Immulon 1B, Dynex Technology, Chantilly, Va.) were coated with HIV immunoglobulin (HIVIG), which was prepared from plasma of HIV-seropositive donors with high neutralizing titers against HIV-1IIIB, in 0.085 M carbonate-bicarbonate buffer (pH 9.6) at 4° C. overnight, followed by washes with washing buffer (0.01M PBS containing 0.05% Tween-20) and blocking with PBS containing 1% dry fat-free milk (Bio-Rad Inc., Hercules, Calif.). Virus lysates were added to the wells and incubated at 37° C. for 1 h. […] Reactions were terminated by addition of 1N H2SO4. Absorbance at 450 nm was recorded in an ELISA reader (Ultra 386, TECAN, Research Triangle Park, NC). Recombinant protein p24 purchased from US Biological (Swampscott, Mass.) was included for establishing standard dose response curves. Each sample was tested in triplicate. The percentage of inhibition of p24 production was calculated as previously described.
(§4) Mutations in the NHR region of HIV-1 virus NL4-3 cause genetic resistance to T20.

[8] = system: HIV-1NL4-3(36G) V38A/N42D; details: T20-resistant
Experimental: as §3, §4

[9] = system: HIV-1NL4-3(36G) V38E/N42S; details: T20-resistant
Experimental: as §3, §4

[10] = system: HIV-1NL4-3(36G) N42S; details: T20-sensitive
Experimental: as §3, §4

[11] = target: T1, Proteinase K (Parengyodontium album, UniProt P06873); experiment: Proteinase K digestion, residual peptide by direct ELISA; format: in vitro ADME; details: 1 μU/ml Proteinase K in PBS, 37° C.
T1 construct: purchased Sigma
From the text: T20 was used as a control. […] Samples were collected at different times and centrifuged immediately.

[12] = CD spectroscopy of secondary structure (α-helicity) of the individual peptides; format: physicochemical; details: CD at 222 nm, 10 μM, ddH2O pH 7.0; spectrum of free Fd subtracted
Experimental: as §1

[13] = system: HIV-1IIIB-mediated cell-cell fusion
Experimental: Briefly, H9/HIV-1IIIB cells were pre-labeled with a fluorescent dye, Calcein AM (Molecular Probes, Inc., Eugene, Oreg.), and incubated with a testing compound at a graded concentration at 37° C. for 30 min in a 96-well cell culture plate. Then the CD4^+ MT-2 cells were added to the H9/HIV-1IIIB cells at a ratio of 10:1, followed by incubation at 37° C. for 2 hrs. The fused and unfused Calcein-labeled HIV-1-infected cells were counted under an inverted fluorescence microscope (Zeiss, Germany) with an eyepiece micrometer disc. The percent inhibition of cell fusion by a compound and the EC50 and EC90 values were calculated using the software CalcuSyn.

[14] = system: HIV-1-mediated fusion; details: background statement; cited from earlier work

T1 sequence (P06873 106-384): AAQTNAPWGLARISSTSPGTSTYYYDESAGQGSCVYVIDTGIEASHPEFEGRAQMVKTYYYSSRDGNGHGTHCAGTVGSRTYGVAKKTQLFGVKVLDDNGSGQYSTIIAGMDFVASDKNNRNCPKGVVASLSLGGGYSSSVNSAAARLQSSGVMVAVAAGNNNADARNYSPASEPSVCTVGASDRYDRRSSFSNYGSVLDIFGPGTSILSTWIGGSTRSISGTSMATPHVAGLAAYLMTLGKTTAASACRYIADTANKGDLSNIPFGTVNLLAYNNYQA
CHR-peptide C34, sequence (P04578 628-661): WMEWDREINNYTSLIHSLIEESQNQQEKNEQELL

Compound: CC[C@H](C)[C@H](N)C(=O)N[C@@H](CCC(=O)O)C(=O)N[C@@H](C)C(=O)N[C@@H](CCC(N)=O)C(=O)N[C@@H](CCC(N)=O)C(=O)N[C@@H](Cc1c[nH]cn1)C(=O)N[C@@H](CC(C)C)C(=O)N[C@@H](CC(C)C)C(=O)N[C@@H](CCC(N)=O)C(=O)N[C@@H](CC(C)C)C(=O)N[C@H](C(=O)N[C@H](C(=O)N[C@@H](Cc1c[nH]c2ccccc12)C(=O)NCC(=O)N[C@H](C(=O)N[C@@H](CCCCN)C(=O)N[C@@H](CCC(N)=O)C(=O)N[C@@H](CC(C)C)C(=O)N[C@@H](CCC(N)=O)C(=O)N[C@@H](C)C(=O)N[C@@H](CCCNC(=N)N)C(=O)N[C@H](C(=O)N[C@@H](CC(C)C)C(=O)N[C@@H](C)C(=O)N[C@H](C(=O)N[C@@H](CCC(=O)O)C(=O)N[C@@H](CCCNC(=N)N)C(=O)N[C@@H](Cc1ccc(O)cc1)C(=O)O)C(C)C)[C@@H](C)CC)[C@@H](C)CC)C(C)C)[C@@H](C)O [N28] (H-IEAQQHLLQLTVWGIKQLQARILAVERY-OH; N-terminus and C-terminus assumed)
- complex formation with C34 [1]: could not form a complex with C34
- IC50 ([2]; 1IIIB (subtype B, X4)): > 3000 nM

Compound: IEAQQHLLQLTVWGIKQLQARILAVERYGYIPEAPRDGQAYVRKDGEWVLLSTFL [N28Fd]
- IC50 ([2]; read-out: IC50, inhibition of HIV-1IIIB replication (p24), MT-2 cells, day 4 post-infection): 39 nM
- IC50 ([3]; PHA-stimulated PBMCs, p24 on day 7, read-out: IC50 against infection by HIV-1 93IN101): 1.27 nM
- IC50 ([4]; TZM-bl cells, luciferase, read-out: IC50 against infection by HIV-1 Bal): 9.8 nM
- trimer stability in SDS-PAGE [5]: SDS-resistant but heat-sensitive trimer; also recorded: more stable than N36Fd under SDS conditions
- remaining antiviral activity against HIV-1IIIB infection, % of original [6]: 97%
- IC50 [7]: 30.6 ± 6.07 nM
- IC50 [8]: 29 ± 0.82 nM
- IC50 [9]: 46.4 ± 4.49 nM
- IC50 [10]: 26.95 ± 0.02 nM
- residual amount, % of original, detected by ELISA ([11]; 3 hrs): 84%
- α-helicity of the N36 or N28 portion in N36Fd or N28Fd [12]: 30.9%
- fold more potent than the free N-peptide in inhibiting cell-cell fusion ([13]; N36Fd vs N36, N28Fd vs N28): > 138 fold
- IC50 ([13]; read-out: IC50, inhibition of HIV-1-induced cell-cell fusion, H9/HIV-1IIIB + MT-2 cells, 2 hrs): 21 nM

Compound: enfuvirtide
- inhibition of HIV-1-mediated fusion [14]: low nanomolar level
- IC50 ([3]; 93IN101 (subtype C, R5, 2 h)): 1.75 nM
- IC50 ([4]; Bal (subtype B, R5)): 3.4 nM
- remaining antiviral activity against HIV-1IIIB infection, % of original [6]: completely lost its anti-HIV-1 activity
- IC50 [7]: 374 nM
- IC50 [8]: 2300 nM
- IC50 [9]: 1390 nM
- IC50 [10]: 30 nM
- remaining at 3 h ([11]; read-out: residual amount, % of original, detected by ELISA): 17%

From US9724383B2, “Stabilized trimeric HIV-1 GP41 fusion inhibitor polypeptides comprising the N-terminal heptad repeat (NHR) and foldon (FD) trimerization motif” (New York Blood Center, Inc., priority 2009, dated 2017)
